Laboratory results from paper PMC9260974 (BMC Pharmacology & Toxicology, 2022).
Values joined by “and” are separate entries in the source; they are usually repeats but may differ in a detail not shown here. Equal values may be shown once. Read-outs that look alike come from different tables or passages of the source.

Experiments:
[1] = tested on: blood pressure; details: after oral administration; cited from earlier work
[2] = Single-dose two-period crossover bioequivalence study, fed (high-fat breakfast): plasma pharmacokinetics of lisinopril and amlodipine (LC-MS/MS, NCA); details: for concentration at 3 h / concentration at 10 h / concentration at 6 h / concentration at 5 h / concentration at 7 h / concentration at 8 h / concentration at 11 h / concentration at 12 h / concentration at 0 h / concentration at 1 h / concentration at 2 h / concentration at 4 h / concentration at 9 h / concentration at 13 h / concentration at 24 h / concentration at 36 h / concentration at 48 h / concentration at 72 h / concentration at 96 h / concentration at 144 h / concentration at 168 h: human, po, Plasma concentration of lisinopril; for concentration at 3 h: nominal time 3 h; for concentration at 3 h / concentration at 10 h / concentration at 6 h / concentration at 5 h / concentration at 7 h / concentration at 8 h / concentration at 11 h / concentration at 12 h / concentration at 0 h / concentration at 1 h / concentration at 2 h / concentration at 4 h / concentration at 9 h / concentration at 13 h / concentration at 24 h / concentration at 36 h / concentration at 48 h / concentration at 72 h / concentration at 96 h / concentration at 144 h / concentration at 168 h / Plasma concentration of lisinopril: reference (R) tablets; for concentration at 10 h: nominal time 10 h; for concentration at 6 h: nominal time 6 h; for concentration at 5 h: nominal time 5 h; for concentration at 7 h: nominal time 7 h; for concentration at 11 h: nominal time 11 h; for concentration at 12 h: nominal time 12 h; for concentration at 0 h: nominal time 0 h; for concentration at 2 h: nominal time 2 h; for concentration at 4 h: nominal time 4 h; for concentration at 9 h: nominal time 9 h; for concentration at 13 h: nominal time 13 h; for concentration at 24 h: nominal time 24 h; for concentration at 36 h: nominal time 36 h; for concentration at 48 h: nominal time 48 h; for concentration at 72 h: nominal time 72 h; for concentration at 96 h: nominal time 96 h; for Plasma concentration of lisinopril: oral, listed as LSN;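 as to Plasma concentration of lisinopril: single tablet dose 10 mg/5 mg fixed combination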
Description: (§1) All eligible subjects were assigned according to the random table generated by SAS 9.4 and took the test (T) and reference(R) drugs respectively with 240 ml water after an overnight fast of at least 10 h (fasting study) or after the high-fat breakfast within half an hour before dosing (fed study). […] Subjects were forbidden to drink water within 1 h before and after taking the drug, and the lunch and dinner were provided at 4 h and 8 h respectively post-drug administration. No other food and beverage intake was permitted except the provided diets. […] 4 ml venous blood samples were collected before drug administration and at 1,2,3,4,5,6,7,8,9,10,11,12,13,24,36,48,72,96,144,168 h after administration. The samples were centrifuged at 1700gear per minute for 10 min at 4℃ to separate the plasma, which was divided into two aliquots (drug monitoring at least 800ul and backup) and stored at - 80℃until analysis.
(§2) The lower limit of quantification (LLOQ) was 0.500 ng/mL and the assay dynamic range was 0.500-100 ng/mL.
(§3) Under multiple reaction monitoring, LC–MS/MS system adopts positive ionization mode.
(§4) Data collection and analysis was performed with Analyst 1.6.3 software (Sciex, Canada) and Watson LIMS (Thermo, USA). Calibration curves were constructed using linear regression equation obtained by the weighted (W = 1/X2) least square method fitting for both analytes. Quantitation of quality control and clinical samples were also performed by the Analyst software using the same mathematical algorithm as that used in the calibration of standard curves.
(§5) For the purpose of bioequivalence analysis, the maximum observed concentration (Cmax), the area under the plasma concentration–time curve from time 0 to the last measured time point (AUC0-t), and the area under the plasma concentration–time curve from time 0 to infinity (AUC0-∞) were considered as primary PK parameters. The secondary PK parameters were the observed time to Cmax (Tmax) and the apparent terminal half-life (T1/2). Cmax and Tmax were the factually measured data and AUC0-t was calculated using the linear and logarithmic trapezoidal methods. AUC0-∞ was calculated according to the following formula: AUC0-∞ = AUC0-t + Clast/λz (Clast is the last measurable concentration and is the first order rate constant of terminal elimination determined from a linear regression line after logarithmic transformation at the end of concentration time curve. λz is the slope calculated by linear regression after logarithmic conversion at the end of the concentration–time curve). T1/2 was calculated to be ln2/λ.
(§6) Statistical analysis was performed by SAS 9.4. Demographic characteristics, safety parameters and pharmacokinetic data were summarized using descriptive statistics, the results were presented as the mean ± SD and the differences between groups were determined by two one-sided tests. […] AUC and Cmax were logarithmically transformed and analyzed by linear mixed effect model. Sequence, period and formulation were fixed effects, and subject within sequence was included as a random effect. Analysis of variance (ANOVA) of cross-over design was performed on the log-transformed variables. […] Bioequivalence was assessed separately in both the fasting and fed groups.

[3] = human, in vivo
Description: as §1, §2, §3, §4, §5, §6

[4] = clinical; details: human, plasma, po
Description: as §1, §2, §3, §4, §5, §6

[5] = lisinopril; cited from earlier work
[6] = plasma, Max, maximum among subjects
[7] = plasma, Mean, mean of 37 subjects
[8] = plasma, Min, minimum among subjects
[9] = lisinopril, intra-subject coefficient of variation

For `NCCCC[C@H](N[C@@H](CCc1ccccc1)C(=O)O)C(=O)N1CCC[C@H]1C(=O)O` [lisinopril], the “Time to appearance of antihypertensive effect” value [1] is given as ≤ 1 h, the “Time to peak antihypertensive effect” value [1] is given as “about 6 h” and the concentration at 3 h ([2]; in vivo, Max, maximum among subjects) is given as 22.4 ng/mL. It also gave a concentration at 10 h ([2]; in vivo, Mean, mean of 36 subjects) of 12.9 ng/mL, a concentration at 6 h ([2]; in vivo, Mean, mean of 37 subjects) of 13.3 ng/mL and a concentration at 3 h ([2]; in vivo, individual subjects) of 22.4 ng/mL. It also gave a concentration at 5 h ([2]; in vivo, individual subjects) of 12.9 ng/mL, a concentration at 6 h ([2]; in vivo, individual subjects) of 22.4 ng/mL and a concentration at 7 h ([2]; in vivo, individual subjects) of 22.4 ng/mL. For the same compound, the concentration at 8 h ([2]; in vivo, individual subjects, nominal time 8 h) was 22.4 ng/mL, the concentration at 11 h ([2]; in vivo, individual subjects) was 12.9 ng/mL and the concentration at 12 h ([2]; in vivo, individual subjects) was 13.3 ng/mL. It also gave a concentration at 0 h [2, 6] of 0.532 ng/mL, a concentration at 1 h ([2]; plasma, Max, maximum among subjects, nominal time 1 h) of 3.22 ng/mL and a concentration at 2 h [2, 6] of 12 ng/mL. For the same compound, the concentration at 4 h [2, 6] was 29.2 ng/mL, the concentration at 5 h [2, 6] was 29.7 ng/mL and the concentration at 6 h [2, 6] was 29.5 ng/mL. For the same compound, the concentration at 7 h [2, 6] was 29.8 ng/mL, the concentration at 8 h ([2]; plasma, Max, maximum among subjects, nominal time 8 h) was 27.4 ng/mL and the concentration at 9 h [2, 6] was 27.1 ng/mL. The concentration at 10 h [2, 6] was 24.1 ng/mL, the concentration at 11 h [2, 6] was 21.9 ng/mL and the concentration at 12 h [2, 6] was 20.8 ng/mL. It also gave a concentration at 13 h [2, 6] of 19 ng/mL, a concentration at 24 h [2, 6] of 8.44 ng/mL and a concentration at 36 h [2, 6] of 3.64 ng/mL. The concentration at 48 h [2, 6] was 3.23 ng/mL, the concentration at 72 h [2, 6] was 2.87 ng/mL and the concentration at 96 h [2, 6] was 2.72 ng/mL. The concentration at 144 h ([2]; plasma, Max, maximum among subjects, nominal time 144 h) was 2.07 ng/mL, the concentration at 168 h ([2]; plasma, Max, maximum among subjects, nominal time 168 h) was 1.66 ng/mL and the concentration at 0 h [2, 7] was 0.0284 ng/mL. For the same compound, the concentration at 1 h ([2]; plasma, Mean, mean of 37 subjects, nominal time 1 h) was 0.795 ng/mL, the concentration at 2 h [2, 7] was 2.85 ng/mL and the concentration at 3 h [2, 7] was 5.92 ng/mL. The concentration at 4 h [2, 7] was 9.3 ng/mL, the concentration at 5 h [2, 7] was 11.9 ng/mL and the concentration at 7 h [2, 7] was 13.9 ng/mL. It also gave a concentration at 8 h ([2]; plasma, Mean, mean of 37 subjects, nominal time 8 h) of 14 ng/mL, a concentration at 9 h [2, 7] of 13.5 ng/mL and a concentration at 11 h [2, 7] of 12 ng/mL. The concentration at 12 h [2, 7] was 10.8 ng/mL, the concentration at 13 h [2, 7] was 9.81 ng/mL and the concentration at 24 h [2, 7] was 4.32 ng/mL. It also gave a concentration at 36 h [2, 7] of 2.32 ng/mL, a concentration at 48 h [2, 7] of 1.88 ng/mL and a concentration at 72 h [2, 7] of 1.46 ng/mL. For the same compound, the concentration at 96 h [2, 7] was 1.21 ng/mL, the concentration at 144 h ([2]; plasma, Mean, mean of 37 subjects, nominal time 144 h) was 0.741 ng/mL and the concentration at 168 h ([2]; plasma, Mean, mean of 37 subjects, nominal time 168 h) was 0.639 ng/mL. It also gave a concentration at 0 h [2, 8] of 0 ng/mL, a concentration at 1 h ([2]; plasma, Min, minimum among subjects, nominal time 1 h) of 0 ng/mL and a concentration at 2 h [2, 8] of 0 ng/mL. For the same compound, the concentration at 3 h [2, 8] was 0.89 ng/mL, the concentration at 4 h [2, 8] was 1.37 ng/mL and the concentration at 5 h [2, 8] was 2.12 ng/mL. For the same compound, the concentration at 6 h [2, 8] was 3.02 ng/mL, the concentration at 7 h [2, 8] was 3.34 ng/mL and the concentration at 8 h ([2]; plasma, Min, minimum among subjects, nominal time 8 h) was 3.75 ng/mL. It also gave a concentration at 9 h [2, 8] of 4.2 ng/mL, a concentration at 10 h [2, 8] of 4.09 ng/mL and a concentration at 11 h [2, 8] of 3.97 ng/mL. The concentration at 12 h [2, 8] was 3.57 ng/mL, the concentration at 13 h [2, 8] was 3.73 ng/mL and the concentration at 24 h [2, 8] was 2.31 ng/mL. For the same compound, the concentration at 36 h [2, 8] was 1.27 ng/mL, the concentration at 48 h [2, 8] was 0.976 ng/mL and the concentration at 72 h [2, 8] was 0.736 ng/mL. The concentration at 96 h [2, 8] was 0.564 ng/mL, the concentration at 144 h ([2]; plasma, Min, minimum among subjects, nominal time 144 h) was 0 ng/mL and the concentration at 168 h ([2]; plasma, Min, minimum among subjects, nominal time 168 h) was 0 ng/mL. The “Plasma concentration of lisinopril” value ([2]; individual subjects, nominal time 1 h) was 0.899 ng/mL and 0.567 ng/mL and 0.719 ng/mL and 1.48 ng/mL and 3.22 ng/mL and 1.13 ng/mL and 0.941 ng/mL and 3.14 ng/mL and 0.842 ng/mL and 1.25 ng/mL and 0.826 ng/mL and 0.793 ng/mL and 1.55 ng/mL and 0.556 ng/mL and 0.744 ng/mL and 1.26 ng/mL and 1.43 ng/mL and 0.747 ng/mL and 1.81 ng/mL and 0.710 ng/mL and 0.799 ng/mL and 0.831 ng/mL and 2.32 ng/mL, the “Plasma concentration of lisinopril” value ([2]; individual subjects, nominal time 8 h) was 13.3 ng/mL and the “Plasma concentration of lisinopril” value ([2]; individual subjects, nominal time 144 h) was 1.05 ng/mL and 0.866 ng/mL and 2.07 ng/mL and 0.911 ng/mL and 0.569 ng/mL and 0.775 ng/mL and 0.691 ng/mL and 0.777 ng/mL and 0.834 ng/mL and 0.868 ng/mL and 0.514 ng/mL and 0.885 ng/mL and 0.919 ng/mL and 1.07 ng/mL and 1.00 ng/mL and 1.32 ng/mL and 0.715 ng/mL and 0.954 ng/mL and 1.83 ng/mL and 0.661 ng/mL and 0.869 ng/mL and 0.760 ng/mL and 0.582 ng/mL and 0.969 ng/mL and 0.992 ng/mL and 0.736 ng/mL and 0.576 ng/mL and 1.56 ng/mL and 1.10 ng/mL. For the same compound, the “Plasma concentration of lisinopril” value ([2]; individual subjects, nominal time 168 h) was 0.904 ng/mL and 0.689 ng/mL and 1.66 ng/mL and 0.780 ng/mL and 0.534 ng/mL and 0.708 ng/mL and 0.504 ng/mL and 0.629 ng/mL and 0.750 ng/mL and 0.711 ng/mL and 0.787 ng/mL and 0.832 ng/mL and 0.987 ng/mL and 0.890 ng/mL and 1.20 ng/mL and 0.696 ng/mL and 0.773 ng/mL and 0.528 ng/mL and 1.38 ng/mL and 0.522 ng/mL and 0.761 ng/mL and 0.659 ng/mL and 0.502 ng/mL and 0.849 ng/mL and 0.785 ng/mL and 0.620 ng/mL and 0.572 ng/mL and 1.04 ng/mL, the “Intra-CV (%) of AUC0-t” value [2, 9] was 13.3% and the “Intra-CV (%) of AUC0-∞” value [2, 9] was 12.9%. For the same compound, the “Intra-CV (%) of Cmax” value [2, 9] was 22.4%, the “Intra-CV (%) of AUC0-t” value [3] was 19.3% and the “Intra-CV (%) of AUC0-∞” value [3] was 17.0%. For the same compound, the “Intra-CV (%) of Cmax” value [3] was 24.3%, the concentration at 0 h [4] was 0.517 ng/mL and the “Decrease of AUC0-24 by concomitant EGCG-concentrated green tea extract” value [5] was 69%. For the same compound, the “Decrease of AUC0-∞ by concomitant EGCG-concentrated green tea extract” value [5] was 67%, the “Decrease of Cmax by concomitant EGCG-concentrated green tea extract” value [5] was 71% and the “Mean fecal recovery of intact drug” value [5] was 69%.
